Read-outs that look alike come from different tables or passages of the source.
Columns and labels:
SU-DHL6 = assay: Inhibition of tumor cell proliferation, CellTiter-Glo, SU-DHL6; assay type: cell-based; conditions: compound concentration 50 μM, 72 hours; for cell survival rate (% of control) at 50 µM: Homo sapiens, SU-DHL-6, read-out: Inhibitory activity against proliferation (cell survival rate) SU-DHL6
Summary of the method: (§1)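 Compound tested at 50 μM for 72 h, read by CellTiter-Glo. Survival rate = (treated−blank)/(control−blank) RLU ×100, binned as +++ ≤30%, ++ >30-≤60%, + 60-<90%. Seeding 2000-10000 cells/well depending on growth rate.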

RPMI-8226 = assay: Inhibition of tumor cell proliferation, CellTiter-Glo, RPMI-8226; assay type: cell-based; conditions: compound concentration 50 μM, 72 hours; for cell survival rate (% of control) at 50 µM: Homo sapiens, RPMI-8226, read-out: Inhibitory activity against proliferation (cell survival rate) RPMI-8226
Summary of the method: as §1

K562 = assay: Inhibition of tumor cell proliferation, CellTiter-Glo, K562; assay type: cell-based; conditions: compound concentration 50 μM, 72 hours; for cell survival rate (%) at 50 µM: Homo sapiens, K562, read-out: Inhibitory activity against proliferation (cell survival rate) K562
Summary of the method: as §1

A549 = assay: Inhibition of tumor cell proliferation, CellTiter-Glo, A549; assay type: cell-based; conditions: compound concentration 50 μM, 72 hours; for cell survival rate (% of control) at 50 µM: Homo sapiens, A549, read-out: Inhibitory activity against proliferation (cell survival rate) A549
Summary of the method: as §1

MDA-MB-453 = assay: Inhibition of tumor cell proliferation, CellTiter-Glo, MDA-MB-453; assay type: cell-based; conditions: compound concentration 50 μM, 72 hours; for cell survival rate (%) at 50 µM: Homo sapiens, MDA-MB-453, read-out: Inhibitory activity against proliferation (cell survival rate) MDA-MB-453
Summary of the method: as §1

BxPC-3 = assay: Inhibition of tumor cell proliferation, CellTiter-Glo, BxPC-3; assay type: cell-based; conditions: compound concentration 50 μM, 72 hours; for cell survival rate (%) at 50 µM: Homo sapiens, BXPC-3, read-out: Inhibitory activity against proliferation (cell survival rate) BxPC-3
Summary of the method: as §1

LC3B = LC3B (Homo sapiens (Human), UniProt Q9GZQ8); assay: Fluorescence polarization experiment targeting LC3B (GST-LC3B with FITC-labeled peptide)
[1] = GST-LC3B 180 nM, FITC-labeled peptide 18 nM, 25° C.

| IC50 (LC3B) [µM] | Compound | Inhibitory activity against proliferation (cell survival rate) SU-DHL6 (SU-DHL6) | Inhibitory activity against proliferation (cell survival rate) RPMI-8226 (RPMI-8226) | Inhibitory activity against proliferation (cell survival rate) K562 (K562) | Inhibitory activity against proliferation (cell survival rate) A549 (A549) | Inhibitory activity against proliferation (cell survival rate) MDA-MB-453 (MDA-MB-453) | Inhibitory activity against proliferation (cell survival rate) BxPC-3 (BxPC-3) | IC50 (LC3B; [1]) [µM] | cell survival rate (% of control) at 50 µM (SU-DHL6) [%] | cell survival rate (% of control) at 50 µM (RPMI-8226) [%] | cell survival rate (%) at 50 µM (K562) [%] | cell survival rate (% of control) at 50 µM (A549) [%] | cell survival rate (%) at 50 µM (MDA-MB-453) [%] | cell survival rate (%) at 50 µM (BxPC-3) [%] |
| --- | --- | --- | --- | --- | --- | --- | --- | --- | --- | --- | --- | --- | --- | --- |
|  | O=C1CCC(N2C(=O)c3cccc(NC=C4C(=O)CC(c5cccc6[nH]cc(Cl)c56)CC4=O)c3C2=O)C(=O)N1 (centres unmarked) [Compound 12] | + (60≤survival rate (%)<90) | + (60≤survival rate (%)<90) | + (60≤survival rate (%)<90) | + (60≤survival rate (%)<90) | + (60≤survival rate (%)<90) | + (60≤survival rate (%)<90) | < 3 |  |  |  |  |  |  |
|  | O=C1CCC(N2Cc3c(NC=C4C(=O)CC(c5cccc6[nH]ccc56)CC4=O)cccc3C2=O)C(=O)N1 (centres unmarked) [Compound 3] | +++ (survival rate (%)≤30) | + (60≤survival rate (%)<90) | + (60≤survival rate (%)<90) | + (60≤survival rate (%)<90) | ++ (30<survival rate (%)≤60) | + (60≤survival rate (%)<90) | < 3 |  |  |  |  |  |  |
|  | O=C1CCC(N2Cc3c(NC=C4C(=O)CC(c5cc(C(F)(F)F)ccc5F)CC4=O)cccc3C2=O)C(=O)N1 (centres unmarked) [Compound 140] | +++ (survival rate (%)≤30) | +++ (survival rate (%)≤30) | +++ (survival rate (%)≤30) | +++ (survival rate (%)≤30) | ++ (30<survival rate (%)≤60) | ++ (30<survival rate (%)≤60) | < 3 |  |  |  |  |  |  |
|  | O=C1CCC(N2Cc3c(NC=C4C(=O)CC(c5c(F)c(Cl)cc(Cl)c5Cl)CC4=O)cccc3C2=O)C(=O)N1 (centres unmarked) [Compound 154] | +++ (survival rate (%)≤30) | +++ (survival rate (%)≤30) | +++ (survival rate (%)≤30) | + (60≤survival rate (%)<90) | +++ (survival rate (%)≤30) | + (60≤survival rate (%)<90) | < 3 |  |  |  |  |  |  |
| < 3 | O=C1CCC(N2Cc3c(NC(=O)CN4CCN(CCNC=C5C(=O)CC(c6ccccc6Br)CC5=O)CC4)cccc3C2=O)C(=O)N1 (centres unmarked) [Compound 157] |  |  |  |  |  |  |  | ≤ 30 | ≤ 30 | ≤ 30 | ≤ 30 | 30 to 60 | 30 to 60 |
|  | CC(C)[C@H](NC(=O)CN1CCN(CCNC=C2C(=O)CC(c3ccccc3)CC2=O)CC1)C(=O)N[C@@H](CCCNC(N)=O)C(=O)Nc1ccc(COC(=O)Nc2cccc3c2CN(C2CCC(=O)NC2=O)C3=O)cc1 (some centres unmarked) [Compound 90] | +++ (survival rate (%)≤30) | ++ (30<survival rate (%)≤60) | +++ (survival rate (%)≤30) | ++ (30<survival rate (%)≤60) | ++ (30<survival rate (%)≤60) | ++ (30<survival rate (%)≤60) | 15 to 100 |  |  |  |  |  |  |
| 100 to 1000 | CCCNC(=O)C1CC(=O)C(=CNc2cccc3c2CN(C2CCC(=O)NC2=O)C3=O)C(=O)C1 (centres unmarked) [Compound 114] |  |  |  |  |  |  |  | 30 to 60 | 60 to 90 | 30 to 60 | 30 to 60 | 60 to 90 | 60 to 90 |
|  | O=C1CCC(N2Cc3c(NC=C4C(=O)CC(c5c(Br)ccc(F)c5Cl)CC4=O)cccc3C2=O)C(=O)N1 (centres unmarked) [Compound 11] | + (60≤survival rate (%)<90) | + (60≤survival rate (%)<90) | +++ (survival rate (%)≤30) | + (60≤survival rate (%)<90) | + (60≤survival rate (%)<90) | + (60≤survival rate (%)<90) | < 3 |  |  |  |  |  |  |
|  | O=C1CCC(N2Cc3c(NC=C4C(=O)CC(c5c(Cl)ccc6[nH]ccc56)CC4=O)cccc3C2=O)C(=O)N1 (centres unmarked) [Compound 152] | +++ (survival rate (%)≤30) | +++ (survival rate (%)≤30) | +++ (survival rate (%)≤30) | +++ (survival rate (%)≤30) | ++ (30<survival rate (%)≤60) | ++ (30<survival rate (%)≤60) | < 3 |  |  |  |  |  |  |
|  | O=C1CCC(N2Cc3c(NC=C4C(=O)CC(c5c(Br)ccc6[nH]cc(Cl)c56)CC4=O)cccc3C2=O)C(=O)N1 (centres unmarked) [Compound 14] | ++ (30<survival rate (%)≤60) | + (60≤survival rate (%)<90) | + (60≤survival rate (%)<90) | +++ (survival rate (%)≤30) | +++ (survival rate (%)≤30) | + (60≤survival rate (%)<90) | < 3 |  |  |  |  |  |  |
|  | O=C1CCC(N2Cc3c(NC(=O)CNC=C4C(=O)CC(c5ccccc5)CC4=O)cccc3C2=O)C(=O)N1 (centres unmarked) [Compound 42] | + (60≤survival rate (%)<90) | ++ (30<survival rate (%)≤60) | ++ (30<survival rate (%)≤60) | ++ (30<survival rate (%)≤60) | + (60≤survival rate (%)<90) | + (60≤survival rate (%)<90) | 100 to 1000 |  |  |  |  |  |  |
|  | O=C1CCC(N2C(=O)c3cccc(NC(=O)CNC=C4C(=O)CC(c5ccccc5)CC4=O)c3C2=O)C(=O)N1 (centres unmarked) [Compound 49] | ++ (30<survival rate (%)≤60) | ++ (30<survival rate (%)≤60) |  | ++ (30<survival rate (%)≤60) | ++ (30<survival rate (%)≤60) | + (60≤survival rate (%)<90) | 100 to 1000 |  |  |  |  |  |  |
|  | O=C1CCC(N2Cc3c(NC(=C4C(=O)CC(c5ccccc5)CC4=O)c4ccccc4)cccc3C2=O)C(=O)N1 (centres unmarked) [Compound 75] | +++ (survival rate (%)≤30) | +++ (survival rate (%)≤30) | +++ (survival rate (%)≤30) | +++ (survival rate (%)≤30) | +++ (survival rate (%)≤30) | + (60≤survival rate (%)<90) | 100 to 1000 |  |  |  |  |  |  |
| < 3 | CCOC(=O)C1C(=O)C(=CNc2cccc3c2C(=O)N(C2CCC(=O)NC2=O)C3=O)C(=O)CC1c1cccc2[nH]ccc12 (centres unmarked) [Compound 26] |  |  |  |  |  |  |  | 60 to 90 | 60 to 90 | 60 to 90 | 60 to 90 | 60 to 90 | 60 to 90 |
|  | O=C1CCC(N2Cc3c(NC(=O)CCCCNC=C4C(=O)CC(c5ccccc5)CC4=O)cccc3C2=O)C(=O)N1 (centres unmarked) [Compound 46] | + (60≤survival rate (%)<90) | ++ (30<survival rate (%)≤60) | ++ (30<survival rate (%)≤60) | +++ (survival rate (%)≤30) | +++ (survival rate (%)≤30) | + (60≤survival rate (%)<90) | 100 to 1000 |  |  |  |  |  |  |
|  | CC(Nc1cccc2c1C(=O)N(C1CCC(=O)NC1=O)C2=O)=C1C(=O)CC(c2ccccc2)CC1=O (centres unmarked) [Compound 76] | +++ (survival rate (%)≤30) | +++ (survival rate (%)≤30) | +++ (survival rate (%)≤30) | +++ (survival rate (%)≤30) |  | ++ (30<survival rate (%)≤60) | 100 to 1000 |  |  |  |  |  |  |

Reference: patent publication US11021457B2, “Class of isoindolone-imide ring-1,3-dione-2-ene compounds, composition and use thereof” (WIGEN BIOMEDICINE TECHNOLOGY (SHANGHAI) CO., LTD., priority 2017, dated 2021)
